Common to all, as to format: cell-based, human
In assay [1] the test system is MDA-MB-231 cells. The assay is described as follows: Mitochondrial outer membrane potential assay (MOMP). The conditions noted are these: MDA-MB-231, 10 mM, 24 hrs. The procedure:
(§1) One of the key hallmarks of apoptosis is the loss of mitochondrial membrane potential. To investigate that aspect we did a MOMP assay which validates our Cell-APOPercentage assay. This assay was tested on three cell lines MCF7, MDA-MB-231 & MRC-5. The top right and bottom hand quadrants of each plot represents healthy (FL2-A) and apoptotic (FL1-A) cells respectively (see FIGS. 13 to 15).
(§2) From the results obtained from MTT (IC50 values) and Cell-APOPercentage assays it was quite evident that ˜10 mM HPβCD caused cellular growth inhibition through apoptosis in cancer cells and had little or no effect in normal cells. Therefore, we selected just 10 mM HPβCD going forward as the only working concentration for HPβCD treatment. 24 hrs time point was selected (HPβCD & 10 mM H2O2) because mitochondrial membrane potential loss is an early cellular event.

Assay [2] has as its system MCF7 cells. The assay is described as above. Particulars: MCF7, 10 mM, 24 hrs. On the procedure: as §1, §2
Assay [3] relates to MRC-5 cells. The experiment in a line: ROS assay. The conditions noted are these: MRC-5, 10 mM, 24 hrs. On the procedure: (§3) To further validate the occurrence of apoptosis and to investigate the exact mechanisms if apoptosis, a ROS assay was conducted to capture the production of ROS. […] In order to be in solidarity with this fact, a ROS assay was performed in three cell lines: MCF7, MDA-MB-231 & MRC-5. Like before, HPβCD and the positive (10 mM H2O2) were treated for 24 hrs. The right hand section in each plot represents the production of ROS.

Assay [4] has as its system MDA-MB-231 cells. The experiment in a line: ROS assay. Particulars: MDA-MB-231, 10 mM, 24 hrs. The procedure: as §3
In assay [5] the test system is MCF7 cells. The experiment in a line: ROS assay. Particulars: MCF7, 10 mM, 24 hrs. The procedure: as §3
In assay [6] the test system is MDA-MB-231 cells. The assay is described as follows: Cell-APOPercentage apoptosis assay. The conditions noted are these: MDA-MB-231, 10 μM Plumbagin, 24 hrs. On the procedure: (§4) APOPercentage assays gives a measure of overall apoptosis in the cell. Apoptosis is an early event and therefore just one time point (24 hrs) was selected and tested on four cell lines MCF7, MDA-MB-231, MRC-5 & HEK-293 cells. 10 μM Plumbagin was used a positive control as opposed to 40 μM from MTT because higher concentrations of plumbagin was way too toxic for the cells and to capture the early activity, optimal dosage was required. To confirm the growth inhibition obtained from the MTT assay was actually due to apoptosis, a Cell-APOPercentage Apoptosis assay was performed according to known methods.

The test system of assay [7] is MCF7 cells. The experiment in a line: Cell-APOPercentage apoptosis assay. The conditions noted are these: MCF7, 10 μM Plumbagin, 24 hrs. On the procedure:
as §4

For assay [8], the system named is MDA-MB-231 cells. The experiment in a line: MTT growth inhibition assay. Particulars: Homo sapiens, MDA-MB-231, 40 μM Plumbagin. On the procedure: (§5) Cells were cultured in appropriate medium supplemented with 10% FCS, penicillin (100 U/ml), and streptomycin (100 μg/ml) (Gibco) at 5% CO2 in a 37° C. incubator.
(§6) Four different cell lines were used MCF7 (ER+). MDA-MB-231 (ER−), MRC-5 (Lung Fibroblasts) and HEK-293 (Embryonic kidney). MRC-5 and/or HEK-293 were used as control cell lines depending on availability.
(§7) In order to determine whether HPβCD has the ability to induce cancer cell death a primary screening using an MTT assay was performed. Three different time points 24 hrs.

In assay [9] the test system is MCF7 cells. The experiment in a line: MTT growth inhibition assay. The conditions noted are these: Homo sapiens, MCF7, 40 μM Plumbagin. On the procedure: as §5, §6, §7
Assay [10] has as its system MDA-MB-231 cells. The assay is described as follows: Caspase 3/7 assay. The conditions noted are these: MDA-MB-231, 40 μM Plumbagin, 24 hrs. On the procedure:
(§8) The final step in apoptosis following the intrinsic pathway is the activation of executioner caspases like caspase 3 and caspase 7 […]. Therefore, to confirm that cell death was due to the mitochondrial mediated pathway of apoptosis a Caspase 3/7 assay was conducted. Caspases are activated in response to a myriad of cellular death stimuli and they dismantle the cell. Caspase 3 and caspase 7 contribute to the majority of proteolytic cleavage occurring in apoptosis. As a final step to confirm and validate apoptosis via the mitochondrial intrinsic pathway, the Caspase 3/7 assay was conducted on three cell lines: MCF7, MDA-MB-231 & HEK-293. HPβCD and positive (40 μM PL) were treated for 24 hrs. The percentage of dead/apoptotic cells are clearly indicated in specific corners of each quadrants in the above plots.

Assay [11] concerns MCF7 cells. The experiment in a line: Caspase 3/7 assay. Particulars: MCF7, 40 μM Plumbagin, 24 hrs. The procedure:
as §8

In assay [12] the test system is HEK-293 cells. The experiment in a line: Caspase 3/7 assay. Particulars: HEK-293, 40 μM Plumbagin, 24 hrs. On the procedure: as §8

On to `OO` [H2O2, reference compound], for which the “apoptotic cells / cell death (loss of mitochondrial membrane potential)” value in assay [1] is reported as 92.4%. The “apoptotic population (loss of mitochondrial membrane potential)” value in assay [2] came to 92.1%. The ROS generation in assay [3] turned out to be 64.1%; in assay [4] it was 73%; in assay [5] it was 88.5%.

On to `CC1=CC(=O)c2c(O)cccc2C1=O` [Plumbagin, reference compound], for which the apoptosis in [6] and in assay [7] was about 90% throughout. In addition, the inhibition at 40 µM in assay [8] (24 hrs) is about 85%; in [8] (48 hrs), about 92%; in [8] (72 hrs), about 95%; in assay [9] (24 hrs), about 80%; in assay [9] (48 hrs) it was about 90%; in assay [9] (72 hrs) it was about 100%. Also, the “Total Apoptotic (caspase 3/7)” value amounted to 80.45% in [10], 23.55% in [11], 72.40% in [12] and 72.4% in [12] (listed as PL).

The values above are taken from patent US20220096529A1, “2-HYDROXYPROPYL-BETA-CYCLODEXTRIN (HPBETACD) FOR USE IN THE TREATMENT OF BREAST CANCER” (UNIVERSITY OF THE WITWATERSRAND, JOHANNESBURG, priority 2019, published 2022).
